Experimental data reported in patent EP0263209A2, “Anthelmintic quinolinyl acylhydrazones” (THE UPJOHN COMPANY, priority 1986, dated 1988).
Read-outs that look alike come from different tables or passages of the source.

Columns and labels:
Format in all cases: in vivo
H. contortus = assay: Sheep experimentally infected with Haemonchus contortus, percentage clearance (Procedure No. 1); conditions: single sheep per route
Method: In individual experiments all sheep are treated identically, however non-critical variations occur between experiments. All of the sheep used in this procedure are treated twice with levamisole hydrochloride orally at 8 mg/kg or once each with ivermectin parenterally at 200 µg/kg and levamisole hydrochloride orally at 8 mg/kg. The second treatment in each case is administered 4-7 days after the first treatment. Two weeks after the second treatment all sheep are inoculated per os with ∼3,500 to ∼7,500 infective larvae of H. contortus. Rectal fecal samples are taken from each sheep 26-41 days post-inoculation (P.I.), and these samples are examined for eggs of H. contortus using the McMaster counting chamber technique. […] One-three days later on days 27-42 PI each sheep remaining in the study (excluding the nontreated controls) is treated with a test compound (orally or parenterally at 100 mg/kg unless indicated otherwise) or a standard (levamisole hydrochloride orally at 8 mg/kg) or is used as an untreated control. All sheep received food and water ad lib. throughout the experiment. Prior to administration, all solid compounds are finely ground using a mortar and pestle. Oral compounds are suspended in 20-30 ml of sterile vehicle #98 (each ml contains: carboxymethylcellulose = 10 mg, polysorbate80 -4 mg, propylparaben - 0.42 mg) using a sonicator and administered along with a tap water wash via a stomach tube. The parenteral compounds are similarly suspended in 20-30 ml of the sterile vehicle and given by intraperitoneal injecting using a 13 gauge, 2 inch needle and a 50 ml syringe. All test compounds are given to a single sheep/route of administration. Two or more sheep are treated with levamisole hydrochloride and five are used as nontreated controls. All animals are monitored for signs of toxicity following treatment. The sheep are sacrificed 7-12 days after treatment (days 35-49 PI), and the abomasum is ligated and removed from each sheep. Each abomasum is longitudinally sectioned and rinsed into an 80 mesh sieve. Sieve contents are collected in individual containers and fixed in formol-alcohol. Later each sample is transferred to a 1000 or 2000 ml beaker and the volume brought to 400-1000 ml with tap water. The total number of worms in a 40-100 ml aliquot (10%) is determined. When no worms are found in the 10% aliquot, the entire sample is examined. Total worm number/sheep and percentage clearance for each treatment are calculated. Percentage clearance for a particular test compound in a given trial is determined according to the following formula: Percentage Clearance (Test Compound) = [(Mean number of worms recovered from nontreated control sheep - Number of worms recovered from treated sheep)/Mean number of worms recovered from nontreated control sheep] x 100. Sheep which die within 24 hr following treatment are not examined for worms, while any that die between 24 hr post-treatment and necropsy are examined in an identical manner as that described above. The results of various trials are combined and reported in Table I as percentage clearance.

Trichuris = assay: Sheep naturally infected with helminths, mean percentage clearance of adult worms (Procedure No. 2); conditions: Oral, 100 mg/kg, groups of five
Method: (§1) Parasitized sheep are randomly assigned to groups of five animals based on parasitic burden, sex, and farm origin. Sheep are double ear-tagged, weighed, housed in a barn in community pens, fed hay supplemented with 1/2 lb corn/head/day. Water is given ad lib. Animals are allowed to acclimate for one-two weeks prior to treatment.
(§2) Each group of sheep receives a test compound either orally or parenterally at a dosage rate of 100 mg/kg. A group of sheep is treated with 8 mg/kg of levamisole hydrochloride and another group serves as an untreated control group. Orally administered compounds are suspended in 20-30 ml of sterile vehicle #98 (each ml contains: carboxymethylcellulose - 10 mg, polysorbate80 -4 mg, propylparaben - 0.42 mg) using a sonicator and administered along with a tap water wash via a stomach tube. For parenteral administration, compounds are similarly suspended in 20-30 ml of the sterile vehicle and given by intraperitoneal injection using a 20 gauge, 1 inch needle and a 50 ml syringe. Following treatment, all animals are observed for signs of toxicity.
(§3) The number and classification of helminth eggs per gram of feces (e.p.g.) are determined for each sheep during the acclimation period and in some cases at necropsy. Egg counts are made using the McMaster counting chamber technique and rectal fecal samples. Animals dying during the 24 hours immediately following dosing are not subjected to necropsy. Sheep that die 1-6 days posttreatment are posted and complete worm counts performed. All remaining animals are sacrificed on days 7-8 posttreatment. Each sheep is euthanised and bled out prior to opening the abdominal cavity. Ligatures are placed at the reticuloomasal junction, the pyloric valve, and the ileo-cecal junction. The abomasum and small intestine are freed of fat and mesenteric attachments, longitudinally opened, and their contents placed in individual containers. The mucosal surface of each is washed with tap water, rubbed clean, and rinsed several times. Washings and ingesta for each organ are made up to 1 liter and a 10% aliquot in formalin is stored for later examination. The cecum, large intestine, and colon are freed of mesenteric attachments, each is longitudinally opened, and their contents washed, collected, and made up to 1 liter in 10% formalin. The entire sample is stored. All carcasses are incinerated.
(§4) Ten percent of the total contents collected from the abomasum and small intestine and the entire contents of the large intestine, cecum, and colon are examined under stereoscopic magnification (40X). All worms are identified to genus and in some instances species. Separate adult and larval counts are determined.
(§5) The mean percentage clearance against specific helminths in the test sheep is calculated by subtracting the mean number of helminths observed in the treated sheep at necropsy from the mean number observed in the nontreated controls at necropsy, dividing the remainder by the latter mean number and multiplying by 100. The mean percentage clearances against the various helminths identified in the test sheep are calculated.

Nematodirus = assay: as above; conditions: Oral, 100 mg/kg, groups of five
Method: as §1, §2, §3, §4, §5

Haemonchus = assay: as above; conditions: Oral, 100 mg/kg, groups of five
Method: as §1, §2, §3, §4, §5

Trichostrongylus axei = assay: as above; conditions: Oral, 100 mg/kg, groups of five
Method: as §1, §2, §3, §4, §5

Ostertagia = assay: as above; conditions: Oral, 100 mg/kg, groups of five
Method: as §1, §2, §3, §4, §5

[1] = system: Trichostrongylus colubriformis; assay: as above; conditions: Oral, 100 mg/kg, groups of five
Method: as §1, §2, §3, §4, §5

Oesophagostomum = assay: as above; conditions: Oral, 100 mg/kg, groups of five
Method: as §1, §2, §3, §4, §5

[2] = ip, intraperitoneal administration, read-out: H. contortus %Clearance I.P.
[3] = oral administration, read-out: H. contortus %Clearance P.O.

SMILES | inhibition in vivo at 100 mg/kg (H. contortus; [2]) [%] | inhibition in vivo at 100 mg/kg (H. contortus; [3]) [%] | other results
O=C(NN=Cc1ccc2ccccc2n1)c1cccc(O)c1 [Compound 20] | 20.3 | 0 | 
Cc1ccccc1C(=O)NN=Cc1ccc2ccccc2n1 [Compound 15] | 0 | 32 | 
O=C(NN=Cc1ccnc2ccccc12)C1CCC1 [Compound 29, cyclobutanecarboxylic acid (4-quinolinylmethylene)hydrazide] | 88.4 | 99.8 | 
O=C(NN=Cc1cnc2ccccc2c1)C1CCCCC1 [Compound 41] |  | 98.2 | 
CCC(=O)NN=Cc1cnc2ccccc2c1 [Compound 39] |  | 96.4 | 
O=C(NN=Cc1ccnc2ccccc12)c1ccc(C(F)(F)F)cc1 [Compound 26, 4-trifluoromethylbenzoic acid (4-quinolinylmethylene)hydrazide] | 29 | 40.2 | 
COc1ccc(C(=O)NN=Cc2ccc3ccccc3n2)cc1 [Compound 22, 4-methoxybenzoic acid (2-quinolinylmethylene)hydrazide] | 14.3 | 0 | 
CC(=O)NN=Cc1cnc2ccccc2c1 [Compound 43] |  | 85.4 | 
COC(=O)NN=Cc1ccnc2ccccc12 [Compound 25, methyl (4-quinolinylmethylene)carbazate] |  | 3.4 | 
O=C(NN=Cc1ccc2ccccc2n1)c1ccccc1 [Compound 8, benozic acid (2-quinolinylmethylene) hydrazide] |  | 33 | 
CCOC(=O)NN=Cc1ccnc2ccccc12 [Compound 6, ethyl (4-quinolinylmethylene)carbazate] | 61.2 | 82.9 | Percentage Clearance of Adult Worms Trich. (Trichuris): 11.1%; Percentage Clearance of Adult Worms N. (Nematodirus): 45.2%; Percentage Clearance of Adult Worms H. (Haemonchus): 94.1%; Percentage Clearance of Adult Worms T.a. (Trichostrongylus axei): 0%; Percentage Clearance of Adult Worms Ost. (Ostertagia): 79.4%; Percentage Clearance of Adult Worms T.c. [1]: 61.4%; Percentage Clearance of Adult Worms Oes. (Oesophagostomum): 33.3%
O=C(NN=Cc1ccc2ccccc2n1)c1cccc([N+](=O)[O-])c1 [Compound 23, 3-nitrobenzoic acid (2-quinolinylmethylene)hydrazide] | 0 | 39.5 | 
O=C(NN=Cc1ccnc2ccccc12)c1ccccc1 [Compound 11] |  | 96.8 | 
Cc1cccc(C(=O)NN=Cc2ccc3ccccc3n2)c1 [Compound 4, 3-methylbenzoic acid (2-quinolinylmethyl-ene)hydrazide] | 29.8 | 53.3 | 
NC(=O)NCC(=O)NN=Cc1ccc2ccccc2n1 [Compound 12] |  | 32.9 | 
O=C(NN=Cc1ccc2ccccc2n1)c1cccnc1 [Compound 9] |  | 76.8 | 
O=C(NN=Cc1ccnc2ccccc12)c1cccs1 [Compound 16] | 80.1 | 25.2 | 
CCOc1ccc(C(=O)NN=Cc2ccc3ccccc3n2)cc1 [Compound 14] | 0 | 36.8 | 
